Where a name gives a salt, the structure may show the parent alone. Read-outs that look alike come from different tables or passages of the source.
Method: Amorphous state of Ib can be prepared by dissolving Form VIII in 82% t-butanol/18% water at a drug concentration of ˜6 mg/mL. This solution was lyophilized overnight (˜18 hours) to form the amorphous material.

CCC(=O)NS(=O)(=O)c1ccc(NC(=O)Cc2ccc(Br)c(Oc3cc(Cl)cc(C#N)c3)c2F)c(Cl)c1 [amorphous material, 2-[4-Bromo-3-(3-chloro-5-cyano-phenoxy)-2-fluoro-phenyl]-N-(2-chloro-4-propionylsulfamoyl-phenyl)-acetamide, sodium salt]
stability of amorphous material on storage (25C/60 RH, at least one week): stable at 25C/60 RH for at least one week | stability of amorphous material on storage (40C/75 RH): not at 40C/75 RH
